Assay results taken from ChEMBL document CHEMBL3792274, “Neuroprotective oleanane triterpenes from the roots of Bupleurum chinense” (Bioorg Med Chem Lett, 2016).

Key:
Bcap37 = test: Cytotoxicity against human Bcap37 cells after 48 hrs by MTT assay; format: cell-based; settings: Bcap37, 48 h
SH-SY5Y [1] = test: Neuroprotective activity against H2O2-induced neuronal cell death in human SH-SY5Y cells assessed as cell viability at 50 uM pretreated for 12 hrs followed by H2O2 addition measured after 3 hrs by MTT assay relative to control; format: functional; settings: read-out: Activity
A549 = test: Cytotoxicity against human A549 cells after 48 hrs by MTT assay; format: cell-based; settings: A549, 48 h
[2] = Cytotoxicity against human Hep3B cells after 48 hrs by MTT assay; format: cell-based, Hep 3B2
HepG2 = test: Cytotoxicity against human HepG2 cells after 48 hrs by MTT assay; format: cell-based; settings: HepG2, 48 h
MCF7 = test: Cytotoxicity against human MCF7 cells after 48 hrs by MTT assay; format: cell-based; settings: MCF7, 48 h
SH-SY5Y [3] = test: Neuroprotective activity against H2O2-induced neuronal cell death in human SH-SY5Y cells assessed as cell viability at 25 uM pretreated for 12 hrs followed by H2O2 addition measured after 3 hrs by MTT assay relative to control; format: functional; settings: read-out: Activity
SH-SY5Y [4] = test: Neuroprotective activity against H2O2-induced neuronal cell death in human SH-SY5Y cells assessed as cell viability at 100 uM pretreated for 12 hrs followed by H2O2 addition measured after 3 hrs by MTT assay relative to control; format: functional; settings: read-out: Activity

Compound | IC50 (Bcap37) | viability at 50 µM (SH-SY5Y [1]) | IC50 (A549) | IC50 [2] | IC50 (HepG2) | IC50 (MCF7) | viability at 25 µM (SH-SY5Y [3]) | viability at 100 µM (SH-SY5Y [4])
CC1(C)CC[C@]23CO[C@@]4(C=C[C@@H]5[C@@]6(C)CC[C@H](O)[C@@](C)(CO)[C@@H]6CC[C@@]5(C)[C@]4(C)C[C@@H]2O)[C@@H]3C1 | > 80 µM | 74.2% | > 80 µM | > 80 µM | 75.7 µM | > 80 µM | 66.7% | 43.5%
CC1(C)CC[C@]23CO[C@@]4(C=C[C@@H]5[C@@]6(C)CC[C@H](O)[C@@](C)(CO)[C@@H]6CC[C@@]5(C)[C@]4(C)C[C@H]2O)[C@@H]3C1 | > 80 µM | 62.4% | > 80 µM | > 80 µM | 63.4 µM | > 80 µM | 70% | 62.6%
CC1(C)CC[C@@]2(CO)C(=C3C=C[C@@H]4[C@@]5(C)CC[C@H](O)[C@@](C)(CO)[C@@H]5CC[C@@]4(C)[C@]3(C)C[C@@H]2O)C1 | > 80 µM | 79.9% | > 80 µM | > 80 µM | > 80 µM | > 80 µM | 81.4% | 78%
CO[C@@H]1C=C2[C@@H]3CC(C)(C)CC[C@]3(CO)[C@@H](O)C[C@@]2(C)[C@]2(C)CC[C@H]3C(C)(C)[C@@H](O[C@@H]4O[C@H](C)[C@H](O)[C@H](O[C@@H]5O[C@H](CO)[C@@H](O)[C@H](O)[C@H]5O)[C@H]4O)CC[C@]3(C)[C@@H]12 | > 80 µM | 7.15% | > 80 µM | > 80 µM | 43.2 µM | > 80 µM | 64.9% | 6.02%
CC1(C)CC[C@@]2(CO)C(=C3C=C[C@@H]4[C@@]5(C)CC[C@H](O)[C@@](C)(CO)[C@@H]5CC[C@@]4(C)[C@]3(C)C[C@H]2O)C1 | > 80 µM | 82.5% | > 80 µM | > 80 µM | > 80 µM | > 80 µM | 83.4% | 79.3%
C[C@H]1O[C@@H](O[C@H]2CC[C@@]3(C)[C@@H](CC[C@]4(C)[C@@H]3[C@H](O)C=C3[C@@H]5CC(C)(C)CC[C@]5(CO)[C@@H](O)C[C@]34C)[C@]2(C)CO)[C@H](O)[C@@H](O[C@@H]2O[C@H](CO)[C@@H](O)[C@H](O)[C@H]2O)[C@H]1O | > 80 µM | 54.4% | > 80 µM | > 80 µM | > 80 µM | > 80 µM | 57.5% | 55.6%
C[C@H]1O[C@@H](O[C@H]2CC[C@@]3(C)[C@@H](CC[C@]4(C)[C@@H]3C=CC3=C5CC(C)(C)CC[C@]5(CO)[C@H](O)C[C@]34C)[C@]2(C)CO)[C@H](O)[C@@H](O[C@@H]2O[C@H](CO)[C@@H](O)[C@H](O)[C@H]2O)[C@H]1O | > 80 µM | 59.5% | > 80 µM | > 80 µM | 35.1 µM | > 80 µM | 66.9% | 33.3%
CC(=O)OC[C@H]1O[C@@H](O[C@H]2[C@@H](O)[C@@H](C)O[C@@H](O[C@H]3CC[C@@]4(C)[C@@H](CC[C@]5(C)[C@@H]4C=CC4=C6CC(C)(C)CC[C@]6(CO)[C@H](O)C[C@]45C)[C@]3(C)CO)[C@@H]2O)[C@H](O)[C@@H](O)[C@@H]1O | > 80 µM | 7.24% | 69.3 µM | > 80 µM | 21.8 µM | 46.5 µM | 14.3% | 7.64%
CO[C@@H]1C=C2[C@@H]3CC(C)(C)CC[C@]3(CO)[C@H](O)C[C@@]2(C)[C@]2(C)CC[C@H]3[C@](C)(CO)[C@@H](O[C@@H]4O[C@H](C)[C@H](O)[C@H](O[C@@H]5O[C@H](COC(C)=O)[C@@H](O)[C@H](O)[C@H]5O)[C@H]4O)CC[C@]3(C)[C@@H]12 | – | 7.12% | – | – | – | – | 11.7% | 7.16%
C[C@H]1O[C@@H](O[C@H]2CC[C@@]3(C)[C@@H](CC[C@]4(C)[C@@H]3[C@H](O)C=C3[C@@H]5CC(C)(C)CC[C@]5(CO)[C@@H](O)C[C@]34C)[C@]2(C)CO)[C@H](O)[C@@H](O)[C@H]1O | 20.2 µM | 11.4% | 58.1 µM | 39.6 µM | 19.4 µM | 29.4 µM | 67.6% | 6.3%
CC1(C)CC[C@]2(CO)C(=O)C[C@]3(C)C(=C2C1)C=C[C@@H]1[C@@]2(C)CC[C@H](O)[C@@](C)(CO)[C@@H]2CC[C@]13C | > 80 µM | 80.6% | > 80 µM | > 80 µM | > 80 µM | > 80 µM | 78.2% | 77.8%
CO[C@@H]1C=C2[C@@H]3CC(C)(C)C[C@H](O)[C@]3(CO)[C@@H](O)C[C@@]2(C)[C@]2(C)CC[C@@H]3[C@](C)(CCC(=O)[C@@]3(C)CO)[C@@H]12 | > 80 µM | 70.2% | > 80 µM | > 80 µM | 65.9 µM | > 80 µM | 75.6% | 67.2%
CC1(C)CC[C@@]2(CO)C(=C3C=C[C@@H]4[C@@]5(C)CCC(=O)[C@@](C)(CO)[C@@H]5CC[C@@]4(C)[C@]3(C)C[C@H]2O)C1 | > 80 µM | 74.1% | > 80 µM | > 80 µM | > 80 µM | > 80 µM | 77.2% | 75.1%
CO[C@@H]1C=C2[C@@H]3CC(C)(C)CC[C@]3(CO)[C@@H](O)C[C@@]2(C)[C@]2(C)CC[C@H]3[C@](C)(CO)[C@@H](O[C@@H]4O[C@H](C)[C@H](O)[C@H](O[C@@H]5O[C@H](CO)[C@@H](O)[C@H](O)[C@H]5O)[C@H]4O)CC[C@]3(C)[C@@H]12 | > 80 µM | 8.25% | > 80 µM | > 80 µM | 27.5 µM | 64.3 µM | 63.1% | 6.16%
CC(=O)O[C@H]1[C@H](O[C@H]2[C@@H](O)[C@@H](C)O[C@@H](O[C@H]3CC[C@@]4(C)[C@@H](CC[C@]5(C)[C@@H]4C=CC4=C6CC(C)(C)CC[C@]6(CO)[C@H](O)C[C@]45C)[C@]3(C)CO)[C@@H]2O)O[C@H](CO)[C@@H](O)[C@@H]1O | 23.5 µM | 7.28% | 56 µM | 23 µM | 18.9 µM | 42.2 µM | 9.38% | 7.36%
CO[C@H]1C=C2[C@H]3CC(C)(C)CC[C@@]3(CO)[C@H](O)C[C@]2(C)[C@@]2(C)CC[C@@H]3C(C)(C)[C@H](O[C@@H]4O[C@H](CO[C@H]5O[C@@H](CO)[C@H](O)[C@@H](O)[C@@H]5O)[C@@H](O[C@@H]5O[C@@H](C)[C@H](O)[C@@H](O)[C@H]5O)[C@H](O)[C@H]4O)CC[C@@]3(C)[C@H]12 | > 80 µM | 50% | > 80 µM | 75.7 µM | > 80 µM | > 80 µM | 58.4% | 20.2%
C[C@@H]1O[C@@H](O[C@H]2[C@H](O)[C@@H](O)[C@H](O[C@@H]3CC[C@]4(C)[C@H](CC[C@@]5(C)[C@H]4CC=C4[C@H]6CC(C)(C)CC[C@@]6(CO)[C@H](O)C[C@@]45C)C3(C)C)O[C@@H]2CO[C@H]2O[C@@H](CO)[C@H](O)[C@@H](O)[C@@H]2O)[C@H](O)[C@H](O)[C@H]1O | > 80 µM | 53% | > 80 µM | 37.8 µM | > 80 µM | > 80 µM | 51.4% | 8.66%
O=c1[nH]cc(F)c(=O)[nH]1 [FLUOROURACIL] | 47.1 µM | – | – | 10.5 µM | 49.7 µM | 42.8 µM | – | –
Cc1c(C)c2c(c(C)c1O)CCC(C)(C(=O)O)O2 (stereo not drawn) [TROLOX] | – | 73.7% | – | – | – | – | 67% | 75.2%
